Columns and labels:
Assay in all cases: drug sensitivity score (DSS3, normalised partial AUC of % inhibition dose-response) (DSS (score)); higher = more sensitive (stronger inhibition of viability); extreme values may be limits of the assay
FMOC02_3 = patient-derived low-grade serous ovarian cancer cells; conditions: 72 h; library: FO5A; assay format: 2D, 384-well, CellTiter-Glo
In short: (§1)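 The drug sensitivity score is calculated as a partial area under the percent-inhibition dose-response curve, divided by the log of the upper asymptote; higher scores mean more sensitive. For this score, early-passage (under 10) patient-derived ovarian cancer cells were exposed on 384-well flat clear-bottom plates to compounds at five concentrations across a 10,000-fold range for 72 h at 37 °C, 5% CO2. Viability was read with CellTiter-Glo and processed in Breeze.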

FMOC03 = patient-derived mucinous ovarian cancer cells; conditions: 72 h; library: FO5A; assay format: 2D, 384-well, CellTiter-Glo
In short: as §1

FMOC22 = patient-derived mucinous ovarian cancer cells; conditions: 72 h; library: FO5A; assay format: 2D, 384-well, CellTiter-Glo
In short: as §1

FMOC04 = patient-derived high-grade serous ovarian cancer cells; conditions: 72 h; library: FO5A; assay format: 2D, 384-well, CellTiter-Glo
In short: as §1

FMOC25_1 = patient-derived low-grade serous ovarian cancer cells; conditions: 72 h; library: FO4B; assay format: 2D, 384-well, CellTiter-Glo
In short: as §1

FMOC11 = patient-derived high-grade serous ovarian cancer cells; conditions: 72 h; library: FO5A; assay format: 2D, 384-well, CellTiter-Glo
In short: as §1

FMOC09 = patient-derived high-grade serous ovarian cancer cells; conditions: 72 h; library: FO5A; assay format: 2D, 384-well, CellTiter-Glo
In short: as §1

FMOC24 = patient-derived high-grade serous ovarian cancer cells; conditions: 72 h; library: FO5A; assay format: 2D, 384-well, CellTiter-Glo
In short: as §1

FMOC02_1 = patient-derived low-grade serous ovarian cancer cells; conditions: 72 h; library: FO5A; assay format: 2D, 384-well, CellTiter-Glo
In short: as §1

FMOC28 = patient-derived low-grade serous ovarian cancer cells; conditions: 72 h; library: FO5A; assay format: 2D, 384-well, CellTiter-Glo
In short: as §1

FMOC02_2 = patient-derived low-grade serous ovarian cancer cells; conditions: 72 h; library: FO5A; assay format: 2D, 384-well, CellTiter-Glo
In short: as §1

FMOC06 = patient-derived mucinous ovarian cancer cells; conditions: 72 h; library: FO5A; assay format: 2D, 384-well, CellTiter-Glo
In short: as §1

FMOC14 = patient-derived high-grade serous ovarian cancer cells; conditions: 72 h; library: FO5A; assay format: 2D, 384-well, CellTiter-Glo
In short: as §1

FMOC17 = patient-derived low-grade serous ovarian cancer cells; conditions: 72 h; library: FO5A; assay format: 2D, 384-well, CellTiter-Glo
In short: as §1

FMOC27 = patient-derived low-grade serous ovarian cancer cells; conditions: 72 h; library: FO5A; assay format: 2D, 384-well, CellTiter-Glo
In short: as §1

FMOC25_2 = patient-derived low-grade serous ovarian cancer cells; conditions: 72 h; library: FO5A; assay format: 2D, 384-well, CellTiter-Glo
In short: as §1

SMILES | drug sensitivity score (FMOC02_3) | drug sensitivity score (FMOC03) | drug sensitivity score (FMOC22) | drug sensitivity score (FMOC04) | drug sensitivity score (FMOC25_1) | drug sensitivity score (FMOC11) | drug sensitivity score (FMOC09) | drug sensitivity score (FMOC24) | drug sensitivity score (FMOC02_1) | drug sensitivity score (FMOC28) | drug sensitivity score (FMOC02_2) | drug sensitivity score (FMOC06) | drug sensitivity score (FMOC14) | drug sensitivity score (FMOC17) | drug sensitivity score (FMOC27) | drug sensitivity score (FMOC25_2)
CC(C)(O)CC(=O)NCCn1ccc2ncnc(Nc3ccc(Oc4cccc(C(F)(F)F)c4)c(Cl)c3)c21 [TAK-285] | 5.3 | 5.1 | 0 | 0 | 5 | 2.7 | 3.7 | 0.9 | 6.2 | 2.4 | 8.6 | 1.3 | 1 | 4.5 | 4.3 | 4.8
Cc1cccc(-c2[nH]c(CNc3ccccc3F)nc2-c2ccc3ncnn3c2)n1 [TEW-7197] | 0.1 | 0 | 0 | 0 | 0 | 0.4 | 0 | 0.85 | 0 | 0 | 1.8 | 3.9 | 0 | 0 | 0.2 | 0
Nc1nc(N)c2nc(-c3cccc(O)c3)c(-c3cccc(O)c3)nc2n1 [TG100-115] | 1.4 | 0.1 | 0 | 0 | 0 | 0.4 | 0.3 | 0.1 | 0 | 0 | 0 | 0.4 | 0.7 | 1.1 | 0 | 0.7
Cc1cc(C(C)Nc2ccccc2)c2nc(N3CCOCC3)cc(=O)n2c1 (stereo not drawn) [TGX-221] | 0.8 | 1 | 0 | 0.35 | 1.7 | 0.3 | 0 | 0.75 | 2 | 0 | 3.3 | 1.1 | 0 | 2.4 | 2 | 2.6
Nc1nc(NC2CC2)cc(-c2cccc(Cl)c2Cl)n1 [TH588] | 5.4 | 0.4 | 2.3 | 1.15 | 2.1 | 2.2 | 1.2 | 0.2 | 3.4 | 5.7 | 5.2 | 0 | 0.2 | 3 | 2.3 | 2.2
Clc1ccccc1C(c1ccccc1)(c1ccccc1)n1cccn1 [TRAM-34] | 0 | 0 | 0 | 0 | 0 | 0 | 0 | 0 | 0 | 1.5 | 0 | 0 | 0 | 0 | 0 | 0
CC(=O)Nc1ccc(C(=O)Nc2ccccc2N)cc1 [Tacedinaline] | 2 | 0 | 0 | 0 | 0 | 1 | 0 | 2.05 | 0.7 | 1.7 | 1.3 | 3.7 | 0.6 | 1.1 | 0 | 0
C=CC[C@@H]1/C=C(\C)C[C@H](C)C[C@H](OC)[C@H]2O[C@@](O)(C(=O)C(=O)N3CCCC[C@H]3C(=O)O[C@H](/C(C)=C/[C@@H]3CC[C@@H](O)[C@H](OC)C3)[C@H](C)[C@@H](O)CC1=O)[C@H](C)C[C@@H]2OC [Tacrolimus] | 1.9 | 0 | 0.1 | 0 | 0 | 1.4 | 0 | 5 | 0.4 | 0.8 | 1.9 | 0 | 1.4 | 0.9 | 1.7 | 0
Cn1ncnc1[C@H]1c2n[nH]c(=O)c3cc(F)cc(c23)N[C@@H]1c1ccc(F)cc1 [Talazoparib] | 5.7 | 0.1 | 3.5 | 0.25 | 4.8 | 1.4 | 0.9 | 4.1 | 7 | 0.7 | 2.3 | 2.2 | 0.7 | 2.7 | 5.5 | 5.7
C[C@@H]1CN(Cc2ccc(F)cc2)[C@@H](C)CN1C(=O)c1cc2c(C(=O)C(=O)N(C)C)cn(C)c2cc1Cl [Talmapimod] | 0 | 0 | 0 | 0 | 0 | 0.2 | 0 | 0 | 0 | 1.2 | 0 | 0 | 0 | 0 | 0 | 0
CC/C(=C(\c1ccccc1)c1ccc(OCCN(C)C)cc1)c1ccccc1 [Tamoxifen] | 4.8 | 4.3 | 3.2 | 3.75 | 2.3 | 3.9 | 1.6 | 7.35 | 6.5 | 2.6 | 3.8 | 5.2 | 4 | 3 | 3.1 | 2.4
COc1cc2c(N3CCN(C(=O)Nc4ccc(OC(C)C)cc4)CC3)ncnc2cc1OCCCN1CCCCC1 [Tandutinib] | 0 | 0 | 0 | 0 | 0 | 0 | 0 | 0.75 | 0 | 1.4 | 0 | 0 | 0 | 0 | 0 | 0
O[C@H]1CC[C@H](Nc2ncc3nc(Nc4c(F)cc(F)cc4F)n([C@H]4CCOC4)c3n2)CC1 [Tanzisertib] | 1.1 | 0 | 0.1 | 0 | 0 | 0 | 0 | 1.45 | 2.3 | 0 | 1.6 | 0 | 0 | 0.8 | 0.1 | 0
C[C@@H](C(=O)O)c1ccc(-c2ccccc2)c(F)c1 [Tarenflurbil] | 0.3 | 0 | 0 | 0 | 0 | 0 | 0 | 1.05 | 0 | 0 | 0 | 0 | 0 | 0 | 0 | 0
COc1cccc2c1c(O)c(C(=O)N(C)c1ccc(C(F)(F)F)cc1)c(=O)n2C [Tasquinimod] | 1 | 0 | 0 | 0 | 3.9 | 0 | 0 | 2.3 | 0 | 0 | 0 | 0 | 0 | 0 | 0.4 | 2.5
CCN(c1cc(-c2ccc(CN3CCOCC3)cc2)cc(C(=O)NCc2c(C)cc(C)[nH]c2=O)c1C)C1CCOCC1 [Tazemetostat] | 0.1 | 0 | 0 | 0 | 0 | 0 | 0 | 0 | 0 | 0 | 0 | 0.5 | 0 | 0 | 0 | 0
CNC(=O)c1cc(COc2nnc(Nc3ccc(Cl)cc3)c3ccoc23)ccn1 [Telatinib] | 0 | 0 | 0 | 0.05 | 0 | 0 | 0 | 0.4 | 1.2 | 0 | 1.7 | 0 | 0 | 2.5 | 0 | 0
Cn1nnc2c(C(N)=O)ncn2c1=O [Temozolomide] | 0 | 0 | 0 | 0 | 0 | 0 | 0 | 0 | 0 | 0.8 | 0 | 0 | 0 | 0.2 | 0 | 0
COc1cc([C@@H]2c3cc4c(cc3[C@@H](O[C@@H]3O[C@@H]5CO[C@@H](c6cccs6)O[C@H]5[C@H](O)[C@H]3O)[C@H]3COC(=O)[C@H]23)OCO4)cc(OC)c1O [Teniposide] | 0 | 0.5 | 2.5 | 0 | 6.4 | 0 | 0 | 2.75 | 0 | 0 | 0 | 0 | 0 | 0 | 0 | 0
O=C1CCC(N2C(=O)c3ccccc3C2=O)C(=O)N1 (stereo not drawn) [Thalidomide] | 0 | 0 | 0 | 0 | 0 | 0 | 0 | 0 | 0 | 0 | 0 | 0 | 0 | 0 | 0.1 | 0
O=c1sn(-c2cccc3ccccc23)c(=O)n1Cc1ccccc1 [Tideglusib] | 0 | 0 | 0 | 0 | 0.3 | 0 | 0 | 0 | 0 | 0 | 1 | 0 | 0 | 0 | 0 | 0
Cn1cncc1[C@@](N)(c1ccc(Cl)cc1)c1ccc2c(c1)c(-c1cccc(Cl)c1)cc(=O)n2C [Tipifarnib] | 9.5 | 6 | 5.3 | 4.45 | 9.7 | 5.3 | 2.2 | 4.1 | 6.9 | 5.8 | 6.2 | 8.8 | 3.5 | 1.8 | 3.3 | 9.8
O=C1NC(=O)[C@@H](c2cn3c4c(cccc24)CCC3)[C@@H]1c1c[nH]c2ccccc12 [Tivantinib] | 5 | 3.1 | 2.5 | 5.1 | 4.2 | 2.8 | 4.3 | 0.65 | 4.7 | 3.3 | 3.7 | 2.7 | 0 | 4.9 | 2.5 | 2.1

— the supplement of paper PMC9938120
